{"source": "patent US5580549A", "about": "“External preparation for skin” (priority 1992, dated 1996)", "key": {"mushroom tyrosinase": {"target": "mushroom tyrosinase", "assay": "Examination for inhibition of tyrosinase activity (L-DOPA substrate, absorbance at 475 nm)", "assay_type": "biochemical", "conditions": "for IC50: L-DOPA substrate, pH 8.8 phosphate buffer, 1.5 minutes, room temperature, read-out: ID50 (inhibition of tyrosinase activity)", "method": "(1) EXAMINATION FOR INHIBITION OF TYROSINASE ACTIVITY\n10 mg L-DOPA (guaranteed reagent) is dissolved at the time of examination in 20 ml of phosphate buffer described in 3) below and prepared 0.05% L-DOPA solution.\n3) 0.1-M phosphate buffer\nThe buffer was prepared at pH 8.8.\nPreparation of sample solution\nThe sample described in TABLE 1 below are diluted by ethanol to the concentration with 3 standards.\nThe measurement of the tyrosinase activity was carried out by a modified method of Pomerantz, using L-DOPA (guaranteed reagent) as the substrate and measuring the absorbance at 475 nm at which the absorption of dihydroxyphenylalanine chrome (reaction product) exists.\nNamely, 1.0 ml of the L-DOPA solution and 1.8 ml of the phosphate buffer were added in 0.1 ml of the sample solutions. 0.1 ml of tyrosinase solution was added and mixed for reaction for 1.5 minutes at room temperature. The absorbance at 475 nm was measured by using a spectrophotometer (type 220 A Spectrophotometer, HITACHI corporation) and the measured value was expressed by T.\nAlso, 1.0 ml of distilled water instead of the L-DOPA solution. 1.8 ml of the phosphate buffers and 0.1 ml of the sample solutions were mixed, operated in the same way above, measured the absorbance and obtained the value T' as a reagent blank of the sample.\n0.1 ml of ethanol instead of the sample solutions was added to the mixture of 1.0 mo of the L-DOPA and 1.8 ml of phosphate buffers, operated in the same way above and obtained the value C as a control.\n1.8 ml of phosphate buffers and 0.1 ml of ethanol were added to 1.0 ml of distilled water instead of L-DOPA solution, operated in the same way above and obtained the value C' as a reagent blank of the control.\nInhibition of tyrosinase activity in each sample concentration were obtained by the following formula. The result was described as semilog graph of which a logarithmic scale indicates concentration of the sample and another scale indicates inhibition ratio of the activity.\nIncidentally, the values T, T', C, and C' were measured three times and averages were used for the calculation.\nInhibition of tyrosinase activity (%)=100×[1-(T-T')/(C-C')]"}, "human skin [1]": {"tested_on": "human skin", "assay": "Examination for bleaching effect (lotion applied to sunlight-exposed skin, depression effect to the chromatosis)", "assay_type": "in vivo", "conditions": "for bleaching effect: lotion with 1.0 wt % sample, each morning and evening, 8 weeks, 10 subjects per group; for improvement of bleaching effect by added ingredient (in words): added to preparation including 2-hydroxy alkoxybenzoic acid", "method": "(2) E[…] BLEACHING EFFECT\nLotions were prepared by the following formula, using each sample. Namely, the alcohol phase and aqueous phase according to the following formula were prepared respectively, and both phases were mixed and dissolved according to an ordinal method. […]\n______________________________________\nPolyoxyethylene (25 moles) hydrogenated castor\nSodium hexametaphosphorate\nIon exchanged water balance\n10 subjects for each group were exposed to sunlight in summer for 4 hours (2 hours×2 days). The lotion was applied to the facial skin of medialis brachii once each morning and evening […] after the day exposed to the sunlight for 8 weeks. After the application period, depression effect to the chromatosis which was caused by the ultraviolet irradiation was examined and evaluated, the degree of which was based on The following standard.\n.circleincircle.: The number of the subjects who judged the result was \"extremely effective\" or \"effective\" were equal to or more than eight (Equal to or more than 80%).\n.largecircle.: The number of the subjects who judged the result was \"extremely effective\" or \"effective\" were five to seven (from 50% less than 70%)\nΔ: The number of the subjects who judged the result was \"extremely effective\" or \"effective\" were three to four (from 30% less than 40%)\n×: The number of the subjects who judged the result was \"extremely effective\" or \"effective\" were less than two (less than 20%)\nThe inhibition effect to the tyrosinase activity which is essential for producing the melanine and bleaching effect for human skin by the 2-hydroxy alkoxybenzoic acid were examined by using samples described in TABLE 1.\nThe investigation for improvement of bleaching effect by adding other ingredients were carried out as described below.\nNamely, the 2-hydroxy-3-methoxybenzoic acid as the 2-hydroxy alkoxy benzoic acid and sodium hyaluronate as the acid mucopolysaccharide were used for the examination of improvement of bleaching effect.\nLotions for the examination were prepared by adding 0.5 weight % of 2-hydroxy-3-methoxybenzoic acid into the alcohol phase and sodium hyaluronate into the aqueous phase of which the concentration as to be shown in TABLE 3."}, "Stability of the samples": {"assay": "Stability of the samples", "conditions": "TABLE 1 and TABLE 2; symbols not defined"}, "human skin [2]": {"tested_on": "human skin", "conditions": "stated as known; cited from earlier work"}}}
{"molecule": "COc1cccc(C(=O)O)c1O", "note": "[Example 1, 2-hydroxy-3-methoxybenzoic acid]", "values": [{"measurement": "IC50", "setting": "mushroom tyrosinase", "value": 21, "unit": "mM"}, {"measurement": "bleaching effect", "setting": "human skin [1]", "value": ".circleincircle. (The number of the subjects who judged the result was \"extremely effective\" or \"effective\" were equal to or more than eight (Equal to or more than 80%))"}, {"measurement": "stability", "setting": "Stability of the samples", "value": ".smallcircle."}]}
{"molecule": "COc1ccc(C(=O)O)c(O)c1", "note": "[Example 2, 2-hydroxy-4-methoxybenzoic acid]", "values": [{"measurement": "IC50", "setting": "mushroom tyrosinase", "value": 1, "unit": "mM"}, {"measurement": "bleaching effect", "setting": "human skin [1]", "value": ".circleincircle. (The number of the subjects who judged the result was \"extremely effective\" or \"effective\" were equal to or more than eight (Equal to or more than 80%))"}]}
{"molecule": "COc1ccc(O)c(C(=O)O)c1", "note": "[Example 3, 2-hydroxy-5-methoxybenzoic acid]", "values": [{"measurement": "IC50", "setting": "mushroom tyrosinase", "value": 4.5, "unit": "mM"}, {"measurement": "bleaching effect", "setting": "human skin [1]", "value": ".circleincircle. (The number of the subjects who judged the result was \"extremely effective\" or \"effective\" were equal to or more than eight (Equal to or more than 80%))"}, {"measurement": "stability", "setting": "Stability of the samples", "value": ".smallcircle."}]}
{"molecule": "CCOc1ccc(C(=O)O)c(O)c1", "note": "[Example 4, 2-hydroxy-4-ethoxybenzoic acid]", "values": [{"measurement": "IC50", "setting": "mushroom tyrosinase", "value": 2, "unit": "mM"}, {"measurement": "bleaching effect", "setting": "human skin [1]", "value": ".circleincircle. (The number of the subjects who judged the result was \"extremely effective\" or \"effective\" were equal to or more than eight (Equal to or more than 80%))"}, {"measurement": "stability", "setting": "Stability of the samples", "value": ".smallcircle."}]}
{"molecule": "Cc1cccc(C(=O)O)c1O", "note": "[Example 5, 2-hydroxy-3-methylbenzoic acid]", "values": [{"measurement": "bleaching effect", "setting": "human skin [1]", "value": ".circleincircle. (The number of the subjects who judged the result was \"extremely effective\" or \"effective\" were equal to or more than eight (Equal to or more than 80%))"}]}
{"molecule": "Cc1ccc(C(=O)O)c(O)c1", "note": "[Example 6, 2-hydroxy-4-methylbenzoic acid]", "values": [{"measurement": "bleaching effect", "setting": "human skin [1]", "value": ".circleincircle. (The number of the subjects who judged the result was \"extremely effective\" or \"effective\" were equal to or more than eight (Equal to or more than 80%))"}, {"measurement": "stability", "setting": "Stability of the samples", "value": ".smallcircle."}]}
{"molecule": "Cc1ccc(O)c(C(=O)O)c1", "note": "[Example 7, 2-hydroxy-5-methylbenzoic acid]", "values": [{"measurement": "bleaching effect", "setting": "human skin [1]", "value": ".circleincircle. (The number of the subjects who judged the result was \"extremely effective\" or \"effective\" were equal to or more than eight (Equal to or more than 80%))"}, {"measurement": "stability", "setting": "Stability of the samples", "value": ".smallcircle."}]}
{"molecule": "CCc1ccc(C(=O)O)c(O)c1", "note": "[Example 8, 2-hydroxy-4-ethylbenzoic acid]", "values": [{"measurement": "bleaching effect", "setting": "human skin [1]", "value": ".circleincircle. (The number of the subjects who judged the result was \"extremely effective\" or \"effective\" were equal to or more than eight (Equal to or more than 80%))"}, {"measurement": "stability", "setting": "Stability of the samples", "value": ".smallcircle."}]}
{"molecule": "Oc1ccc(O)cc1", "note": "[a, hydroquinone, reference compound]", "values": [{"measurement": "IC50", "setting": "mushroom tyrosinase", "value": 4.2, "unit": "mM"}, {"measurement": "bleaching effect", "setting": "human skin [1]", "value": "Δ (The number of the subjects who judged the result was \"extremely effective\" or \"effective\" were three to four (from 30% less than 40%))"}, {"measurement": "side effect (known)", "setting": "human skin [2]", "value": "have side effect"}]}
{"molecule": "O=C(O)c1cc(O)ccc1O", "note": "[b, gentisic acid, reference compound]", "values": [{"measurement": "IC50", "setting": "mushroom tyrosinase", "value": 13.6, "unit": "mM"}, {"measurement": "bleaching effect", "setting": "human skin [1]", "value": "Δ (The number of the subjects who judged the result was \"extremely effective\" or \"effective\" were three to four (from 30% less than 40%))"}, {"measurement": "side effect (known)", "setting": "human skin [2]", "value": "have side effect"}, {"measurement": "stability", "setting": "Stability of the samples", "value": "Δ"}]}
{"molecule": "O=C1O[C@H]([C@@H](O)CO)C(O)=C1O", "note": "[c, ascorbic acid, reference compound]", "values": [{"measurement": "inhibition of tyrosinase activity (in words)", "setting": "mushroom tyrosinase", "value": "high inhibition effect"}, {"measurement": "IC50", "setting": "mushroom tyrosinase", "value": 0.3, "unit": "mM"}, {"measurement": "bleaching effect (in words)", "setting": "human skin [1]; in vivo", "value": "rather low level"}, {"measurement": "bleaching effect", "setting": "human skin [1]", "value": ".smallcircle."}]}
{"molecule": "O=C(O)CN(CCN(CC(=O)O)CC(=O)O)CC(=O)O", "note": "[disodium ethylenediamine tetraacetate]", "values": [{"measurement": "improvement of bleaching effect by added ingredient (in words)", "setting": "human skin [1]", "value": "excellent improvement effect of bleaching"}]}
{"molecule": "CCOC(=O)c1ccc(O)cc1", "note": "[ethyl p-hydroxybenzoate]", "values": [{"measurement": "improvement of bleaching effect by added ingredient (in words)", "setting": "human skin [1]", "value": "excellent improvement effect of bleaching"}]}
{"molecule": "COC(=O)c1ccc(O)cc1", "note": "[methyl p-hydroxybenzoate]", "values": [{"measurement": "improvement of bleaching effect by added ingredient (in words)", "setting": "human skin [1]", "value": "excellent improvement effect of bleaching"}]}
{"molecule": "COc1ccc(C(=O)[O-])c(O)c1.[K+]", "note": "[potassium 2-hydroxy-4-methoxybenzoate]", "values": [{"measurement": "subjects who judged the effect was \"extremely effective\" or \"effective\"", "setting": "human skin [1]; bleaching effect examination, lotion", "value": 80, "unit": "%"}]}
{"molecule": "CC(=O)Oc1c(C)c(C)c2c(c1C)CCC(C)(CCC[C@H](C)CCC[C@H](C)CCCC(C)C)O2", "note": "(some centres unmarked) [tocopherol acetate]", "values": [{"measurement": "improvement of bleaching effect by added ingredient (in words)", "setting": "human skin [1]", "value": "excellent improvement effect of bleaching"}]}
{"molecule": "sodium hyaluronate", "values": [{"measurement": "improvement of bleaching effect by added ingredient (in words)", "setting": "human skin [1]", "value": "extremely improved"}]}
